One assay has as its target human BACE-1 (Homo sapiens (Human), UniProt P56817). The assay can be described thus: Test 1: Inhibition of Human BACE-1. It counts as biochemical. Particulars: recombinant BACE-1, pH 4.5, fluorescence-quenched substrate. How it is done:
Test 1: Inhibition of Human BACE-1
(§1) Recombinant BACE-1 (extracellular domain, expressed in baculovirus and purified using standard methods) at 0.1 to 1 nM concentrations is incubated with the test compound at various concentrations for 1 hour at room temperature in 100 mM acetate buffer, pH 4.5, containing 0.1% CHAPS. Activity was measured using a final concentration of 3 μM of the fluorescence-quenched substrate Q-C(HSO3)-Ile-Asp-Leu-Ala-Val-Leu-Asp-HN—CH2—CH2-Mca, where Q=2-nitro-5-amino benzoic acid and Mca=7-methoxy-4-coumarinyl acetic acid. […] Fluorescence increase was followed for 15 min, in 1 minute's intervals. The fluorescence/time slopes were calculated from duplicate wells and from wells without inhibitor and the IC50 values were calculated using a logistic 4-parameter model.

Assay [1] relates to amyloid peptide 1-40 release. The assay can be described thus: Test 4: Inhibition of Cellular Release of Amyloid Peptide 1-40. The assay is classed as cell-based. To be noted: Cricetulus griseus; Chinese hamster ovary cells transfected with the human gene for amyloid precursor protein, 24 hours; read-out: Amyloid-β1-40 release IC50. The method, then:
Chinese hamster ovary cells are transfected with the human gene for amyloid precursor protein. The cells are plated at a density of 8000 cells/well into 96-well microtiter plates and cultivated for 24 hours in DMEM cell culture medium containing 10% FCS. The test compound is added to the cells at various concentrations, and the cells are cultivated for 24 hours in the presence of the test compound. […] The potency of the compound is calculated from the percentage of inhibition of amyloid peptide release as a function of the test compound concentration.

Another assay concerns the target human BACE-2 (Homo sapiens (Human), UniProt Q9Y5Z0). The assay can be described thus: Test 2: Inhibition of Human BACE-2. It counts as biochemical. Particulars: recombinant BACE-2, pH 4.5, fluorescence-quenched substrate. How it is done: Test 2: Inhibition of Human BACE-2
as §1, with “BACE-2” for “BACE-1”

Here are results for one molecule from US9284284B2, “Oxazine derivatives and their use in the treatment of disease” (NOVARTIS AG, priority 2011, dated 2016).

What is called IC50 is the concentration at which inhibition is half-maximal.

human BACE-2, sequence (Q9Y5Z0 63-473): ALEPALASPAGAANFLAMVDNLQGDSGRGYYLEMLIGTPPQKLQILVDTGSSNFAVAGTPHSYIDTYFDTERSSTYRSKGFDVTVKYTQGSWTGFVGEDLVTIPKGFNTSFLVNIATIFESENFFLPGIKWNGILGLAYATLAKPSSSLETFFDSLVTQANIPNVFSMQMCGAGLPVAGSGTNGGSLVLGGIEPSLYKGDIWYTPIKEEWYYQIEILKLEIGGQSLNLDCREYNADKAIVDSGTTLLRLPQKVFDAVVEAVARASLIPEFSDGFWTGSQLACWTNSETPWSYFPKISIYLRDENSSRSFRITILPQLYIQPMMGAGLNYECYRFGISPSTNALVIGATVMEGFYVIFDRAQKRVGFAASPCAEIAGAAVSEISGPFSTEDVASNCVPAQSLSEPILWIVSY
human BACE-1, sequence (P56817 46-457): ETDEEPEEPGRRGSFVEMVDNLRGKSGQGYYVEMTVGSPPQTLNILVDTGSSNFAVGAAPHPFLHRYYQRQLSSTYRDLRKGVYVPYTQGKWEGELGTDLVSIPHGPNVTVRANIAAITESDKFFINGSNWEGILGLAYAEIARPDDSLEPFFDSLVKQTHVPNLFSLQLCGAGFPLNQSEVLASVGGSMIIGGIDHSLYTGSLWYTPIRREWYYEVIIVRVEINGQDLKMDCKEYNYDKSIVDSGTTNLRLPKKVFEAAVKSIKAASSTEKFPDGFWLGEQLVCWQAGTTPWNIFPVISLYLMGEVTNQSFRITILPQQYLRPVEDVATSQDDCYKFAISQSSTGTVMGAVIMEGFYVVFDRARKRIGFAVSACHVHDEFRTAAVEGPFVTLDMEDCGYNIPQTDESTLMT

Consider `COc1cc(N)cnc1Nc1ccc(F)c([C@]2(C(F)F)COCC(N)=N2)c1` [Example 27, N*2*-[3-((R)-5-Amino-3-difluoromethyl-3,6-dihydro-2H-[1,4]oxazin-3-yl)-4-fluoro-phenyl]-3-methoxy-pyridine-2,5-diamine], for which the IC50 at human BACE-1 came to 3 µM; in assay [1] it was 2 µM; on human BACE-2, 0.66 µM.
